Experimental data from publication PMC7767178 (International Journal of Molecular Sciences, 2020).
Structures can show the parent of a compound that is named as a salt. Where two headings read alike, the source gives them in different places.

What was measured:
[1] = test system: Gram-negative bacteria; details: data not shown; ref our previous study; cited from earlier work
Source text: A. veronii is a widely distributed novel pathogen that can infect humans and animals. Due to overuse of broad-spectrum antibiotics in fish hatcheries, agriculture, and clinical settings, there has been an increase in antibiotic resistance of Aeromonas species, illustrating an emerging potential health concern.

[2] = test system: A. veronii ACCC61732; test: Outer membrane permeabilization, NPN assay; type: cell-based; details: NPN fluorescence, 1×–4× MIC
Protocol: The outer membrane permeabilization abilities of peptides were determined using the fluorescent NPN assay. Mid-log phase A. veronii ACCC61732 was collected by centrifugation, washed twice, and then suspended in N-2-hydroxyethylpiperazine-n-2-ethane sulfonic acid (HEPES) buffer (pH 7.4) to an OD600nm = 0.4. […] Fluorescence intensity was recorded until no further increase with a microplate reader (excitation/emission, 328/438 nm).

[3] = test system: A. veronii ACCC61732; test: microbe, parasite or virus in culture; type: cell-based; details: for MICa, MIC of the antibiotic used alone: checkerboard; for MIC: Aeromonas veronii
Source text: The checkerboard microtiter assay was used to determine the combinations of peptides with different antibiotics (including quinolone, rifamycin, peptide antibiotics, aminoglycoside, tetracycline, and chloramphenicol). […] The fractional inhibitory concentration (FIC) was used to calculate the combination effects using the following formula: FIC index (FICI) = MIC(peptide in combination)/MIC(peptide alone) + MIC(antibiotic in combination)/MIC(antibiotic alone). FICI ≤ 0.5 means synergistic, 0.5 < FICI ≤ 1 means additive action, 1 < FICI ≤ 4 means indifference, and FICI > 4 means antagonism.

[4] = test system: A. veronii ACCC61732; test: Resistance development, 30 serial passages; type: cell-based; details: A. veronii ACCC61732, 30 passages (30 days)
Protocol: The development of bacterial resistance of peptides was performed by the MIC assays. […] GEN, CIP, and PMB were used as controls. […] The MIC values were measured as described above. The serial passaging was repeated for 30 days.

[5] = Tables S1–S5, identical values of one substance within a block given once
[6] = ACCC61732, checkerboard, Tables S1–S5, identical values of one substance within a block given once, read-out: MICa, MIC of the antibiotic used alone

VCVYRGFAWNCHRRANNGVRV [N2143, analog of N6 without the β-sheet structural feature]
antimicrobial activity against Gram-negative bacteria [1]: lost the antimicrobial activity

polymyxin B [PMB, reference compound]
ability to penetrate the outer membrane [2]: higher ability to penetrate the outer membrane than N6NH2 | MICa, MIC of the antibiotic used alone [3, 5]: 8 µg/mL | increase of MIC after 30 serial passages [4]: one-fold

CCn1cc(C(=O)O)c(=O)c2cc(F)c(N3CCNCC3)cc21 [NOR, norfloxacin]
MIC [3, 6]: 0.5 µg/mL

VCVYRCHRRANGFAWNNGVRV [N2413, analog of N6 without the β-sheet structural feature]
antimicrobial activity against Gram-negative bacteria [1]: lost the antimicrobial activity

doxycycline hyclate
MICa, MIC of the antibiotic used alone [3, 5]: 1 µg/mL

CCN1CCN(c2cc3c(cc2F)c(=O)c(C(=O)O)cn3C2CC2)CC1 [ENRO, enrofloxacin]
MIC [3, 6]: 0.25 µg/mL

GFWNVVYRNGVAACCRVHRRN [SN3, analog of N6 without the β-sheet structural feature]
antimicrobial activity against Gram-negative bacteria [1]: lost the antimicrobial activity

CNC(C)C1CCC(N)C(OC2C(N)CC(N)C(OC3OCC(C)(O)C(NC)C3O)C2O)O1 (stereo not shown) [GEN, gentamicin, reference compound]
increase of MIC after 30 serial passages [4]: 31 fold

NC[C@H]1O[C@H](O[C@H]2[C@H](O)[C@@H](O[C@H]3O[C@H](CO)[C@@H](O)[C@H](N)[C@H]3O)[C@H](N)C[C@@H]2N)[C@H](O)[C@@H](O)[C@@H]1O [KANA, kanamycin sulfate]
MIC [3, 6]: 8 µg/mL

[H]/N=C(/N)N[C@H]1[C@H](O)[C@@H](O)[C@H](O[C@@H]2O[C@@H](C)[C@](O)(C=O)[C@H]2O[C@@H]2O[C@@H](CO)[C@H](O)[C@@H](O)[C@@H]2NC)[C@@H](N/C(N)=N\[H])[C@@H]1O [STRE, streptomycin sulfate]
MIC [3, 6]: 64 µg/mL

CN[C@H](CC(C)C)C(=O)N[C@H]1C(=O)N[C@@H](CC(N)=O)C(=O)N[C@H]2C(=O)N[C@H]3C(=O)N[C@H](C(=O)N[C@H](C(=O)O)c4cc(O)cc(O)c4-c4cc3ccc4O)[C@H](O)c3ccc(c(Cl)c3)Oc3cc2cc(c3O[C@@H]2O[C@H](CO)[C@@H](O)[C@H](O)[C@H]2O[C@H]2C[C@](C)(N)[C@H](O)[C@H](C)O2)Oc2ccc(cc2Cl)[C@H]1O [VAN, vancomycin]
MIC ([3]; ACCC61732, read-out: MICa, MIC of the antibiotic used alone): 16 µg/mL

CC1COc2c(N3CCN(C)CC3)c(F)cc3c(=O)c(C(=O)O)cn1c23 (stereo not shown) [OFX, ofloxacin]
MIC [3, 6]: 0.25 µg/mL

O=C(N[C@H](CO)[C@H](O)c1ccc([N+](=O)[O-])cc1)C(Cl)Cl [CHLO, chloramphenicol]
MIC [3, 6]: 0.25 µg/mL

AACCGFWNVVYRNGVRVHRRN [SN1, analog of N6 without the β-sheet structural feature]
antimicrobial activity against Gram-negative bacteria [1]: lost the antimicrobial activity
